Entries after “also recorded” stand apart in the source; their conditions may differ. Read-outs that look alike come from different tables or passages of the source.
Assays:
[1] = test system: rats; design: species or system Sprague-Dawley male rats; settings: rat, in vivo
[2] = test system: nicotine-induced prostration in rats; design: species or system Sprague-Dawley male rats; settings: rat, in vivo
[3] = test system: nicotine-induced seizures in rats; settings: rat, in vivo
[4] = test system: nicotine mortality in rats; settings: rat, in vivo
[5] = test system: nicotine receptor, rat brain membranes; format: binding
[6] = target: nicotine receptor, rat brain membranes; format: binding; remark: listed apart in the source
[7] = test system: nicotine receptor, rat brain membranes; format: binding; settings: for IC50: read-out: [3H]-MCC IC50
[8] = test system: nicotine receptor, rat brain membranes; format: binding; settings: for IC50: read-out: [3H]-nicotine IC50
[9] = test system: hypertensive action of nicotine in anesthetized rats; assay: animal or person; settings: Rattus norvegicus, iv
[10] = test system: hypertensive action of nicotine in anesthetized rats; settings: rat, in vivo, iv
[11] = test system: rats or mice; settings: in vivo; cited from earlier work
[12] = test system: nicotinic cholinergic and nicotine-like binding sites in rat brain membranes
[13] = test system: [3H]-nicotine binding sites in rat brain membranes
[14] = read-out: 3H-Nicotine Binding IC50

CN(C)CCOC(N)=O [DMAE carbamate]
behavioral effect [1]: only a similar effect

CCN(CC)CCOC(=O)c1ccc(N)cc1 [procaine]
antagonism of nicotine-induced prostration / nicotine actions [2]: effectively block nicotine-induced prostration
antagonist activity [2]: antagonists

CN1[C@@H](CC(=O)c2ccccc2)CCC[C@H]1C[C@H](O)c1ccccc1 [α-lobeline]
% Antagonism of seizures [3]: 0/8
Seizures (rats with seizures/total) [3]: 1/8
protection against seizures [3]: complete protection against seizures
% Antagonism of mortality [4]: 75%
Mortality (dead/total) [4]: 2/10
reduction of the mortality [4]: 75%
antagonist activity [2]: most effective antagonist in blocking the prostration, seizures, and mortality
dose blocking nicotine-induced prostration [2]: 10 nmol
binding affinity [5]: even greater affinity than (-)-nicotine; also recorded: very high affinity for brain nicotine receptors

CN(C)c1cccnc1 [3-dimethylaminopyridine]
action on prostration [1]: agonists

CCN1CCCC1c1cccnc1 (stereo not shown) [N'-ethyl nornicotine]
IC50 ([6]; read-out: 3H-MCC Binding IC50): 0.1 µM
decrease in affinity versus nicotine [7]: 3 fold
IC50 [7]: 0.1 µM
decrease in affinity versus nicotine [8]: 3 fold

CN1[C@@H]2CC[C@H]1C[C@@H](OC(=O)C(CO)c1ccccc1)C2 (stereo partly shown) [atropine]
% Antagonism of seizures [3]: 0%
Seizures (rats with seizures/total) [3]: 6/6
protection against nicotine mortality [4]: ineffective

CN(C)CCOC(=O)c1ccccc1 [DMAE benzoate, dimethylaminoethyl benzoate]
% Antagonism of seizures [3]: 45%
Seizures (rats with seizures/total) [3]: 5/9

CCCN1CCCC1c1cccnc1 (stereo not shown) [N'-propyl nornicotine]
decrease in affinity versus nicotine [7]: 200 fold
decrease in affinity versus nicotine [8]: 200 fold

C[N+](C)(C)CCOC(=O)CCC(=O)OCC[N+](C)(C)C [TMAE succinate, succinylcholine]
IC50 ([6]; read-out: 3H-MCC Binding IC50): 0.7 µM
IC50 ([6]; read-out: IC50 for 3H-MCC): ~50 µM
IC50 [5, 14]: 0.8 µM
IC50 ([5]; read-out: IC50 for 3H-nicotine): ~50 µM

CN(C)CCOC(=O)C1CCCCC1 [DMAE cyclohexylcarboxylate, dimethylaminoethyl cyclohexylcarboxylate]
% Antagonism of seizures [3]: 50%
Seizures (rats with seizures/total) [3]: 4/8
seizures [3]: about half of the rats exhibited seizures

DMAE naphthoate [DMAE napththoate]
IC50 ([6]; read-out: 3H-MCC Binding IC50): 70 µM
IC50 [5, 14]: 80 µM

CNC(=O)OC1CCN(Cc2ccccc2)CC1 [N-benzyl-4-piperdyl methylcarbamate]
IC50 ([6]; read-out: 3H-MCC Binding IC50): > 100 µM
IC50 [5, 14]: > 100 µM

N-benzylpiperidyl methylcarbamate
IC50 ([6]; read-out: 3H-MCC Binding IC50): > 100 µM
IC50 [5, 14]: > 100 µM

C[N+](C)(C)CCCCCC[N+](C)(C)C [hexamethonium]
IC50 [7]: > 100 µM
Kd [8]: > 100 µM
IC50 [8]: > 100 µM

C[N+](C)(C)CCOC(=S)Nc1ccccc1 [TMAE phenylthiocarbamate]
% Antagonism of mortality [4]: 63%
Mortality (dead/total) [4]: 3/10
protection against nicotine mortality [4]: 63%
antagonism of nicotine-induced prostration / nicotine actions [2]: next in effectiveness

C[N+](C)(C)CCOC(=O)C1CCCCC1 [TMAE cyclohexylcarboxylate, choline ester of cyclohexylcarboxylic acid]
% Antagonism of seizures [3]: 78%
Seizures (rats with seizures/total) [3]: 1/8
protection against nicotine mortality [4]: 66%
ED100 ([9]; read-out: Antagonistic dose (±s.d.) to completely block elevation in systolic blood pressure): 5 ± 1.5 mg/kg
ED100 ([9]; read-out: dose completely reversing increase in systolic blood pressure): 1.5 mg/kg

COC(=O)[C@H]1[C@@H](OC(=O)c2ccccc2)C[C@@H]2CC[C@H]1N2C [cocaine]
antagonism of nicotine-induced prostration / nicotine actions [2]: effectively block nicotine-induced prostration
antagonist activity [2]: inactive

CN(C)CCOC(=O)c1cccnc1 [DMAE nicotinate]
antagonism of nicotine-induced prostration / nicotine actions [2]: next in effectiveness; also recorded: antagonistic to the nicotine-induced prostration

CCN(CC)CC(=O)Nc1c(C)cccc1C [lidocaine]
antagonist activity [2]: inactive

CN1CCCC1c1cccnc1 (single isomer, unassigned; (-)) [(-)-nicotine]
symptoms [3]: prostration followed by tremors, fasciculations, cyanosis and labored breathing, and myoclonic seizures
Seizures (rats with seizures/total) ([3]; 1.5 mg/kg): 10/10
increase in systolic blood pressure [10]: 25%
Mortality (dead/total) ([4]; ip, 3 mg/kg): 8/10
action on prostration [1]: agonists
behavioral / respiratory effects [1]: deep diaphragmatic breathing and a decreased respiratory rate

CNC(=O)Oc1ccc2c(c1)[C@]1(C)CCN(C)[C@@H]1N2C [physostigmin]
antagonist activity [2]: inactive

CN(C)C(=O)Oc1cccc([N+](C)(C)C)c1 [prostigmin]
antagonist activity [2]: inactive

C[N+]1(C)CCCC1c1cccnc1 (stereo not shown) [N'-methyl nicotonium]
seizures and mortality relative to nicotine [11]: more potent than nicotine in producing seizures and mortality

[3H]C([3H])([3H])[N+](C)(C)CCOC(=O)NC [[^3 H]-MCC, [^3 H]-methylcarbamyl choline]
Bmax (Scatchard analysis) [12]: 4.0×10^-14 moles/mg protein
rate constant for association ([12]; brain membranes): 300000 M⁻¹ s⁻¹
rate constant for dissociation ([12]; brain membranes): 0.001 s⁻¹

C[N+](C)(C)CCOC(=O)Nc1ccccc1 [TMAE phenylcarbamate]
% Antagonism of seizures [3]: 89%
Seizures (rats with seizures/total) [3]: 1/9
protection against seizures [3]: almost complete protection
% Antagonism of mortality [4]: 50%
Mortality (dead/total) [4]: 4/10
protection against nicotine mortality [4]: 50%
antagonism of nicotine-induced prostration / nicotine actions [2]: next in effectiveness

CN1CCCC1c1cccnc1 (single isomer, unassigned; (-)) [[^3 H]-nicotine, (-)-[^3 H]-nicotine]
Bmax, higher affinity site [13]: 5e-15 mol/mg

TMAE naphthoate [TMAE napththoate]
IC50 ([6]; read-out: 3H-MCC Binding IC50): 5 µM
IC50 [5, 14]: 9 µM

α-bungarotoxin
IC50 [7]: > 100 µM
Kd [8]: > 100 µM
IC50 [8]: > 100 µM

C[N+](C)(C)CCOC(=O)c1ccccc1 [TMAE benzoate, benzoylcholine]
% Antagonism of seizures [3]: 78%
Seizures (rats with seizures/total) [3]: 1/8
% Antagonism of mortality [4]: 63%
Mortality (dead/total) [4]: 3/10
protection against nicotine mortality [4]: 63%
effectiveness relative to the DMAE ester [2]: 5 times

C[N+](C)(C)CCOC(=O)Cc1ccccc1 [TMAE phenylacetate]
antagonism of nicotine-induced prostration / nicotine actions [2]: next in effectiveness

From patent US4966916A (priority 1989, dated 1990)
